Laboratory results published in US20260335265A1, “ANTICANCER COMPOSITION COMPRISING MALATE METAL SALT” (BIOSOLYX, priority 2022, published 2026).

Experiments:
[1] = tested on: kidney cancer (Caki-1) cells; experiment: Cancer cell survival rate (MTT reagent, absorbance); assay type: cell-based; settings: 0.5, 1, 2.5, or 5 mM, 96 hours, p<0.001 vs lower-concentration groups (FIG. 5)
Procedure: (§1) 3×10^3 kidney cancer (Caki-1) or pancreatic cancer (Aspc-1) cells were incubated for 24 hours and then treated with CaMal2 of 0.5, 1, 2.5, or 5 mM and incubated for 96 hours again. Then, 3-(4,5-dimethylthiazol-2-yl)-2,5-diphenyltetrazolium bromide reagent of 10 μl was added to each well and reacted for 1 hour. After removing the reagent at the end of the reaction, DMSO 200 of μl was added to each well and the absorbance was measured to confirm the survival rate of the cells.

[2] = tested on: NAD^+ in liver cancer (HepG2), breast cancer (MDA-MB-231), or lung cancer (H1975) cells; experiment: NAD^+ levels in treated cancer cells (NAD^+ assay kit); assay type: cell-based; settings: HepG2, MDA-MB-231, H1975 cells, CaMal 5 mM, CaMal2 2.5 mM, CaMal-DCA 1 mM, 48 hours, vs untreated controls, p<0.001 (FIG. 2)
Procedure: 1×10^6 liver cancer (HepG2), breast cancer (MDA-MB-231), or lung cancer (H 1975) cells were treated with CaMal of 5 mM, CaMal2 of 2.5 mM, or CaMal-DCA of 1 mM for 48 hours, respectively. Then, NAD^+ levels were then analyzed according to the method of Abcam's NAD^+ assay kit.

[3] = tested on: liver cancer (HepG2) cells; experiment: Tumor growth inhibition in liver cancer xenograft mice; assay type: in vivo, Athymic Balb/c nude mice; settings: 80 mg/kg orally five times a week; 30 days; vs untreated controls; p<0.001 (FIG. 11)
Procedure: 1×10^7 liver cancer (HepG2) cells were implanted with Athymic Balb/c nude mice and when they grew to approximately 200 mm^3, CaMal2 of 80 mg/kg was administered orally five times a week to observe tumor growth for 30 days.

[4] = tested on: pancreatic cancer (Aspc-1) cells; experiment: Cancer cell survival rate (MTT reagent, absorbance); assay type: cell-based; settings: 0.5, 1, 2.5, or 5 mM, 96 hours, p<0.001 vs lower-concentration groups (FIGS. 5, 6)
Procedure: as §1
(§2) 3×10^3 liver cancer (HepG2), lung cancer (H1975), pancreatic cancer (Aspc-1), or breast cancer (MDA-MB-231) cells were cultured for 24 hours and then treated with CaMal-DCA of 0.5, 1, 2.5, or 5 mM and incubated for another 96 hours. Then, 3-(4,5-dimethylthiazol-2-yl)-2,5-diphenyltetrazolium bromide reagent of 10 μl was added to each well and reacted for 1 hour. After removing the reagent at the end of the reaction, DMSO of 200 μl was added to each well and the absorbance was measured to confirm the survival rate of the cells.

Malic enzyme 2 (ME2) = Malic enzyme 2 (ME2) level by ELISA in treated cancer cells; assay type: cell-based
Procedure: (§3) 1×10^6 liver cancer (HepG2), breast cancer (MDA-MB-231), or lung cancer (H1975) cells were treated with calcium malate (CaMal) of 5 mM, calcium dimalate (CaMal2) of 2.5 mM, or calcium malate-dichloroacetic acid (CaMal-DCA) of 1 mM for 48 hours, respectively. After that, proteins were then extracted using RIPA buffer. Biorbyt's Malate dehydrogenase 2 (MDH2), Malic enzyme 2 (ME2) and Malic enzyme 3 (ME3) ELISA assay kits were utilized to quantitatively analyze the respective factors in the above extracted proteins.

[5] = tested on: Malate dehydrogenase 2 (MDH2); experiment: Malate dehydrogenase 2 (MDH2) level by ELISA in treated cancer cells; assay type: cell-based
Procedure: as §3

Malic enzyme 3 (ME3) = Malic enzyme 3 (ME3) level by ELISA in treated cancer cells; assay type: cell-based
Procedure: as §3

[6] = tested on: brain cancer (U-87MG) cells; experiment: Cancer cell survival rate (MTT reagent, absorbance); assay type: cell-based; settings: 0.5, 1, 2.5, or 5 mM, 96 hours, p<0.001 vs 0.5, 1, and 2.5 mM groups (FIG. 4)
Procedure: (§4) 3×10^3 colon cancer (HCT-116) or brain cancer (U-87MG) cells were incubated for 24 hours and then treated with CaMal of 0.5, 1, 2.5, or 5 mM and incubated for another 96 hours. Then, 3-(4,5-dimethylthiazol-2-yl)-2,5-diphenyltetrazolium bromide reagent of 10 μl was added to each well and reacted for 1 hour. After removing the reagent at the end of the reaction, DMSO of 200 μl was added to each well and then the absorbance was measured to confirm a survival rate of the cells.

[7] = tested on: colon cancer (HCT-116) cells; experiment: as above; assay type: cell-based; settings: 0.5, 1, 2.5, or 5 mM, 96 hours, p<0.001 vs 0.5, 1, and 2.5 mM groups (FIG. 4)
Procedure: as §4

cancer cells = experiment: Death of cancer cells (summary statement); assay type: cell-based; settings: summary of FIGS. 4, 5, 10, 11 (calcium malate, calcium di-malate) and FIGS. 6, 12 (calcium malate and DCA)
Procedure: as §4, §1
as §2, with “Then, 3-(4,5-dimethylthiazol-2-yl)-2,5-diphenyltetrazolium bromide reagent of 10 μl was added to each well and reacted for 1 hour.” left out

beta cells = experiment: Insulin levels in culture medium of pancreatic beta cells; assay type: cell-based; settings: CaMal 5 mM or CaMal2 2.5 mM, 48 hours
Procedure: 1×10^6 beta cells were treated with CaMal of 5 mM or CaMal2 of 2.5 mM for 48 hours in the absence or presence of glucose of 5 mM, respectively, and a culture medium was harvested. The medium was placed in a spin concentrator (Corning, Inc.) and run at 7,500 g for 10 minutes to obtain insulin assay samples. The samples were quantitatively analyzed using an assay kit manufactured by Enzo company.

[8] = tested on: pancreatic cancer (Aspc-1) cells; experiment: Tumor growth inhibition in pancreatic cancer xenograft mice; assay type: in vivo, Athymic Balb/c nude mice; settings: 20 mg/kg subcutaneously twice a week; 30 days; vs untreated controls; p<0.001 (FIG. 10)
Procedure: 1×10^7 pancreatic cancer (Aspc-1) cells were implanted with Athymic Balb/c nude mice and when they grew to approximately 200 mm^3, CaMal of 20 mg/kg was administered subcutaneously twice a week to monitor tumor growth for 30 days.

[9] = HepG2, MDA-MB-231, H1975 cells, CaMal 5 mM, CaMal2 2.5 mM, CaMal-DCA 1 mM, 48 hours, vs untreated controls, p<0.001 (FIG. 1)
[10] = various cancer cell lines (FIG. 1), stated as activity

| Structure (SMILES) | survival rate of the cancer cells [1] | levels of NAD^+ ([2]; listed as calcium di-malate) | tumor size [3] | survival rate of the cancer cells [4] | amount of ME2 (Malic enzyme 2 (ME2); [9]) | activity of ME2 / malic enzymes (Malic enzyme 2 (ME2); [10]) | amount of MDH2 [5, 9] | activity of MDH2 [5, 10] | amount of ME3 (Malic enzyme 3 (ME3); [9]) | activity of ME3 / malic enzymes (Malic enzyme 3 (ME3); [10]) | survival rate of the cancer cells [6] | survival rate of the cancer cells [7] | levels of NAD^+ [2] | levels of NAD^+ ([2]; listed as calcium malate) | death of cancer cells (cancer cells) | insulin levels (beta cells; absence of glucose, p<0.001 vs Control (No-glucose) (FIG. 3)) | insulin levels (beta cells; presence of glucose 5 mM, p<0.001 vs Control (Glucose) (FIG. 3)) | tumor size [8] |
| --- | --- | --- | --- | --- | --- | --- | --- | --- | --- | --- | --- | --- | --- | --- | --- | --- | --- | --- |
| O=C(O)CC(O)C(=O)O (stereo not drawn) [CaMal2, calcium dimalate] | decreased the survival rate of the cancer cells in a concentration-dependent manner | dramatic exhaustion of NAD^+ | tumor size became reduced visually and clearly | decreased the survival rate of the cancer cells in a concentration-dependent manner | – | – | – | – | – | – | – | – | – | – | – | – | – | – |
| O=C(O)CC(O)C(=O)O (stereo not drawn) [CaMal, calcium malate] | – | – | – | – | significant increase | significant increase | significant increase | significant increase | significant increase | significant increase | concentration-dependent manner decrease in a survival rate of the cancer cells | concentration-dependent manner decrease in a survival rate of the cancer cells | significant decrease | dramatic exhaustion of NAD^+ | death of cancer cells | significant increase in insulin levels | significant increase in insulin levels | tumor size became reduced visually and clearly |
